Converted amounts (≈) assume the structure as drawn.
Tests used:
[1] = system: HCMV recombinant mutant virus (RV145); test: microbe, parasite or virus in culture; assay type: cell-based, human cytomegalovirus; conditions: for IC50: Human betaherpesvirus 5, read-out: IC50 ug/ml HCMV, HCMV
Text: Microtiter plate assay. Ninety-six well plate cultures of human foreskin fibroblasts are infected in the presence of inhibitor compound with a HCMV recombinant mutant virus whose genome contains the prokaryotic beta-glucuronidase gene (Jefferson, R. A., S. M. Burgess, and D. Hirsh. 1986. Beta-glucuronidase from Escherichia coli as a gene fusion marker. Proc. Natl. Acad. Sci. USA 83:8447-8451) whose expression is controlled by a viral promoter. An example of such a virus is RV145 (Jones, T. R., V. P. Muzithras, and Y. Gluzman. 1991. Replacement mutagenesis of the human cytomegalovirus genome: US10 and US11 gene products are nonessential. J. Virol. 65:5860-5872). Since it is under the control of a viral promoter, beta-glucuronidase expression is an indirect indicator of growth and replication of HCMV in this assay. At 96 hours post-infection, the infected cell lysates are prepared (using 50 mM sodium phosphate [pH7.0]containing 0.1% Triton X-100 and 0.1% sarkosyl) and assayed for beta-glucuronidase activity using a substrate for the enzyme which when cleaved yields either a product which can be measured […] in a spectrophotometer or fluorescently in a microfluorimeter. Examples of such substrates are p-nitrophenyl-beta-D-glucuronide and methylumbelliferylglucuronide, respectively. The presence of an antiviral compound is indicated by the reduced expression of the HCMV genome resident beta-glucuronidase gene, compared to the absence of inhibitor. […] Data from this assay generated using varying amounts of inhibitor compound is also used to estimate the IC50 of an inhibitor compound.

HSV-1 = test: HSV Antiviral (ELISA) Assay in Vero cells; assay type: cell-based, herpes simplex virus type 1; conditions: HSV-1, Vero cells; for IC50: Human alphaherpesvirus 1, read-out: IC50 (ug/ml) HSV
Procedure: Vero cells (ATCC #CCL-81) are plated on 96-well tissue culture plates at 3.5×10^4 cells per 100 μl tissue culture DMEM (Dulbeccos modified Eagle media) supplemented with 2% fetal bovine serum (FBS) in each well. After overnight incubation @ 37° C. (in 5% CO2) and 30 minutes prior to infection with HSV-1 (multiplicity of infection equal to 0.006), cells are either untreated, or treated with test compound (multiple concentrations) or reference standard drug control. After approximately 24 hours post-infection incubation @ 37° C. (in 5% CO2), cells are fixed for ELISA assay. The primary antibody is murine anti-HSV glycoprotein D monoclonal primary antibody and the secondary antibody is goat anti-mouse IgG linked to β-galactosidase. Thus the extent of viral replication is determined by assessing β-galactosidase activity by quantifying the generation of the 4-methyl umbelliferone fluorescent cleavage product after addition of the methyl umbelliferyl-β-D-galactoside (Sigma #M1633) substrate on a microfluorimeter (365 nm for excitation and 450 nm for emission). Antiviral activity (IC50) of the test compound is determined by comparing the flourescence obtained in absence of compound to that obtained in the presence of compound.

VZV strain Ellen = test: VZV Antiviral (ELISA) Assay in human foreskin fibroblast cells; assay type: cell-based, varicella-zoster virus; conditions: for IC50 / inhibition at 10 µg/mL: Human alphaherpesvirus 3, Fibroblast; for IC50: read-out: IC50 (ug/ml) VZV; for inhibition at 10 µg/mL: read-out: % inhibition 10 ug/ml VZV, 10 ug/ml
How it was run: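 Cell-based VZV (Ellen) spread assay in HFF, 3-day compound exposure in 2% FBS medium. Viral antigen quantified by fluorescent β-galactosidase ELISA; IC50 from inhibition of signal.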

| SMILES | IC50 ug/ml HCMV [1] [µg/mL] | IC50 [1] [µg/mL] | IC50 (ug/ml) VZV (VZV strain Ellen) [µg/mL] | further results |
| --- | --- | --- | --- | --- |
| O=C(Nc1ccc(NC(=S)NCCSc2cccc(Br)c2)cc1)c1ccccc1F [Example 680] | >0.5 |  |  | IC50 (ug/ml) HSV (HSV-1): >10 µg/mL |
| CC(NC(=S)Nc1ccc(NC(=O)c2ccccc2C(F)(F)F)cc1)c1ccc(F)cc1 (stereo not shown) [Example 992, N-(4-{3-[1-(4-Fluoro-phenyl)-ethyl]-thioureido}-phenyl)-2-trifluoromethyl-benzamide] |  | 4 (≈ 8.67 µM) |  | IC50 (VZV strain Ellen): 1.2 µg/mL (≈ 2.6 µM) |
| CN(C)c1cc(NC(=S)Nc2ccc(NC(=O)c3ccccc3F)cc2)cc(C(F)(F)F)c1 [Example 567] |  | > 0.5 |  | IC50 (VZV strain Ellen): 2 µg/mL (≈ 4.2 µM) |
| CC(NC(=S)Nc1ccc(NC(=O)c2ccc(N(C)C)cc2)cc1)c1ccc(F)cc1 (stereo not shown) [Example 765] | 2.3 (≈ 5.27 µM) |  |  |  |
| O=C(Nc1ccc(NC(=S)Nc2cc(N3CCOCC3)cc(C(F)(F)F)c2)cc1)c1ccccc1F [Example 568] | >0.5 |  | 2.3 (≈ 4.44 µM) |  |
| NC(=O)c1cccc(NC(=S)Nc2ccc(NC(=O)c3ccccc3F)cc2)c1 [Example 952, N-[4-[[[[3-(Aminocarbonyl)phenyl]amino]thioxomethyl]amino]phenyl]-2-fluoro-benzamide] |  | > 10 |  | inhibition at 10 µg/mL (VZV strain Ellen): 22%; IC50 (VZV strain Ellen): > 10 µg/mL |
| COC(=O)c1cccc(C(=O)Nc2ccc(NC(=S)Nc3cc(Cl)c(OC)cc3OC)cc2)c1 [Example 208] | >10 |  | >10 | % inhibition 10 ug/ml VZV (VZV strain Ellen): 25% |
| O=C(Nc1ccc(NC(=S)NCCc2ccccc2)cc1)c1ccccc1F [Example 576] |  | > 0.5 |  | IC50 (VZV strain Ellen): 8 µg/mL (≈ 20.3 µM) |
| O=C(Nc1ccc(NC(=S)NCCOc2cccc(Cl)c2)cc1)c1ccccc1F [Example 666] | >0.5 |  |  |  |
| O=C(Nc1ccc(NC(=S)Nc2cccc(S(=O)(=O)CCO)c2)cc1)c1ccccc1F [Example 969, 2-Fluoro-N-(4-{3-[3-(2-hydroxy-ethanesulfonyl)-phenyl]-thioureido}-phenyl)-benzamide] |  | > 10 |  | inhibition at 10 µg/mL (VZV strain Ellen): 19%; IC50 (VZV strain Ellen): > 10 µg/mL |
| O=C(Nc1ccc(NC(=S)NCCOc2ccc(I)cc2)cc1)c1ccccc1F [Example 696] |  | > 3 |  | IC50 (HSV-1): 10 µg/mL (≈ 18.7 µM) |
| C[C@H](NC(=S)Nc1ccc(NC(=O)c2nccc3ccccc23)cc1)c1ccc(Br)cc1 [Example 1107] | 8.1 (≈ 16 µM) |  | 0.05 (≈ 0.0989 µM) |  |
| C[C@H](NC(=S)Nc1ccc(NC(=O)c2cc3ccccc3cn2)cc1)c1ccc(Br)cc1 [Example 1108] | 2.3 (≈ 4.55 µM) |  | 0.05 (≈ 0.0989 µM) |  |
| CCC(NC(=S)Nc1ccc(NC(=O)c2ccccc2F)cc1)c1ccc(F)cc1 (stereo not shown) [Example 771] | 0.4 (≈ 0.94 µM) |  |  | IC50 (ug/ml) HSV (HSV-1): >10 µg/mL |
| Nc1ccc(F)cc1NC(=S)Nc1ccc(NC(=O)c2ccccc2F)cc1 [Example 1007, N-{4-[3-(2-Amino-5-fluoro-phenyl)-thioureido]-phenyl}-2-fluoro-benzamide] |  | > 10 |  | IC50 (VZV strain Ellen): > 10 µg/mL |
| CN(C)c1cc(CCNC(=S)Nc2ccc(NC(=O)c3ccccc3F)cc2)cc(C(F)(F)F)c1 [Example 653] | >0.5 |  |  | IC50 (ug/ml) HSV (HSV-1): >10 µg/mL |
| O=C(Nc1ccc(NC(=S)Nc2cc(N3CCCC3)cc(C(F)(F)F)c2)cc1)c1ccccc1F [Example 566] | >0.5 |  | 2 (≈ 3.98 µM) |  |

| SMILES | IC50 ug/ml HCMV [1] [µg/mL] | IC50 [1] [µg/mL] | IC50 (ug/ml) VZV (VZV strain Ellen) [µg/mL] | further results |
| --- | --- | --- | --- | --- |
| C[C@H](NC(=S)Nc1ccc(NC(=O)c2ccc(F)cc2)cc1)c1ccc(Br)cc1 [Example 1103] | 3.4 (≈ 7.2 µM) |  | 0.47 (≈ 0.995 µM) |  |
| Cc1cc(CCNC(=S)Nc2ccc(NC(=O)c3ccccc3F)cc2)ccc1N(C)C [Example 673] | >0.5 |  |  | IC50 (ug/ml) HSV (HSV-1): 7 µg/mL (≈ 15.5 µM) |
| O=C(Nc1ccc(NC(=S)Nc2ccc(Br)c(Cl)c2)cc1)c1ccccc1F [Example 915, N-{4-[3-(4-Bromo-3-chloro-phenyl)-thioureido]-phenyl}-2-fluoro-benzamide] |  | > 10 |  | inhibition at 10 µg/mL (VZV strain Ellen): 29%; IC50 (VZV strain Ellen): > 10 µg/mL |
| CC1CN(c2ccc(CNC(=S)Nc3ccc(NC(=O)c4ccccc4F)cc3)cc2C(F)(F)F)CCN1 (stereo not shown) [Example 687] | >0.5 |  |  | IC50 (ug/ml) HSV (HSV-1): 1.2 µg/mL (≈ 2.2 µM) |
| Nc1cccc(NC(=S)Nc2ccc(NC(=O)c3ccccc3F)cc2)c1 [Example 434] | 5 (≈ 13.1 µM) |  | >10 | % inhibition 10 ug/ml VZV (VZV strain Ellen): 0% |
| O=C(Nc1ccc(NC(=S)NCc2cc(C(F)(F)F)ccc2F)cc1)c1ccccc1F [Example 669] |  | > 0.5 |  | IC50 (HSV-1): > 10 µg/mL |
| COc1ccccc1C(=O)Nc1ccc(NC(=S)N[C@H](C)c2ccc(Br)cc2)cc1 [Example 1105] | 2.5 (≈ 5.16 µM) |  | >7.5 |  |
| COc1ccc(C(=O)Nc2ccc(NC(=S)Nc3cc(Br)c(OC)cc3OC)cc2)cc1 [Example 830, N-{4-[3-(5-Bromo-2,4-dimethoxy-phenyl)-thioureido]-phenyl}-4-methoxy-benzamide] |  | > 10 |  | inhibition at 10 µg/mL (VZV strain Ellen): 16%; IC50 (VZV strain Ellen): > 10 µg/mL |
| O=C(Nc1ccc(NC(=S)Nc2cccc(CO)c2)cc1)c1ccccc1F [Example 476] | >10 |  | >10 | % inhibition 10 ug/ml VZV (VZV strain Ellen): 21% |
| O=C(Nc1ccc(NC(=S)Nc2cccc(OC(F)(F)F)c2)cc1)c1ccccc1F [Example 961, 2-Fluoro-N-{4-[3-(3-trifluoromethoxy-phenyl)-thioureido]-phenyl}-benzamide] |  | > 10 |  | inhibition at 10 µg/mL (VZV strain Ellen): 53%; IC50 (VZV strain Ellen): > 10 µg/mL |
| CN1CCN(c2cc(NC(=S)Nc3ccc(NC(=O)c4ccccc4F)cc3)cc(C(F)(F)F)c2)CC1 [Example 569] | >0.5 |  | 3 (≈ 5.64 µM) |  |
| Nc1ccc(C(F)(F)F)cc1NC(=S)Nc1ccc(NC(=O)c2ccccc2F)cc1 [Example 999, N-{4-[3-(2-Amino-5-trifluoromethyl-phenyl)-thioureido]-phenyl}-2-fluoro-benzamide] |  | 4 (≈ 8.92 µM) |  | IC50 (VZV strain Ellen): 9.4 µg/mL (≈ 21 µM) |
| CC(NC(=S)Nc1ccc(NC(=O)c2cccc(Cl)c2)cc1)c1ccc(F)cc1 (stereo not shown) [Example 761] | 1.5 (≈ 3.51 µM) |  | >10 |  |
| CC(NC(=S)Nc1ccc(NC(=O)c2ccccc2F)cc1)c1ccc(Br)cc1 (stereo not shown) [Example 1102] | 1.7 (≈ 3.6 µM) |  | 0.2 (≈ 0.423 µM) |  |
| CN(C)c1ccc(CNC(=S)Nc2ccc(NC(=O)c3ccccc3F)cc2)cc1C(F)(F)F [Example 610] | >0.5 |  | >10 |  |
| COc1ccccc1C(=O)Nc1ccc(NC(=S)N[C@@H](C)c2ccc(Br)cc2)cc1 [Example 1104] | 4.9 (≈ 10.1 µM) |  | 0.09 (≈ 0.186 µM) |  |
| O=C(Nc1ccc(NC(=S)NCCOc2cc(Cl)cc(Cl)c2)cc1)c1ccccc1F [Example 664] | >0.5 |  |  |  |

— patent publication US6462055B2, “Alpha-methylbenzyl-containing thiourea inhibitors of herpes viruses containing a phenylenediamine group” (Wyeth, priority 1998, dated 2002)
